# Data from US11230541B2, “Heterocyclic compound” (Takeda Pharmaceutical Company Limited, priority 2017, dated 2022).
# Where a name gives a salt, the structure may show the parent alone.
# Biological target: T1, NMDA receptor composed of four subunits including 2 sets of heterodimers of NR1 and NR2B (Homo sapiens, UniProt Q13224)
# T1 construct: host or cells: HEK293 (tetracycline-induced expression)
# Assay: NR2B Ca2+ influx assay (FLIPR, Fluo-4) in HEK293 cells expressing human GRIN1 and GRIN2B
# Assay type: cell-based
# Settings: HEK293, 10 μM final compound concentration, glutamic acid/glycine-induced Ca2+ influx, read-out: inhibitory rate (10 μM compound concentration)
# Outline: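 Tetracycline-induced (2 h) HEK293 cells expressing human GRIN1/GRIN2B, Fluo-4-loaded, were preincubated 15 min at room temperature with compound at 10 μM final. FLIPR recorded Ca2+ influx every 3 s for 5 min after glutamate/glycine addition (30 μM in added buffer); inhibition from cumulative fluorescence relative to agonist-free wells.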
# T1 sequence (Q13224 27-1484, other chains not shown): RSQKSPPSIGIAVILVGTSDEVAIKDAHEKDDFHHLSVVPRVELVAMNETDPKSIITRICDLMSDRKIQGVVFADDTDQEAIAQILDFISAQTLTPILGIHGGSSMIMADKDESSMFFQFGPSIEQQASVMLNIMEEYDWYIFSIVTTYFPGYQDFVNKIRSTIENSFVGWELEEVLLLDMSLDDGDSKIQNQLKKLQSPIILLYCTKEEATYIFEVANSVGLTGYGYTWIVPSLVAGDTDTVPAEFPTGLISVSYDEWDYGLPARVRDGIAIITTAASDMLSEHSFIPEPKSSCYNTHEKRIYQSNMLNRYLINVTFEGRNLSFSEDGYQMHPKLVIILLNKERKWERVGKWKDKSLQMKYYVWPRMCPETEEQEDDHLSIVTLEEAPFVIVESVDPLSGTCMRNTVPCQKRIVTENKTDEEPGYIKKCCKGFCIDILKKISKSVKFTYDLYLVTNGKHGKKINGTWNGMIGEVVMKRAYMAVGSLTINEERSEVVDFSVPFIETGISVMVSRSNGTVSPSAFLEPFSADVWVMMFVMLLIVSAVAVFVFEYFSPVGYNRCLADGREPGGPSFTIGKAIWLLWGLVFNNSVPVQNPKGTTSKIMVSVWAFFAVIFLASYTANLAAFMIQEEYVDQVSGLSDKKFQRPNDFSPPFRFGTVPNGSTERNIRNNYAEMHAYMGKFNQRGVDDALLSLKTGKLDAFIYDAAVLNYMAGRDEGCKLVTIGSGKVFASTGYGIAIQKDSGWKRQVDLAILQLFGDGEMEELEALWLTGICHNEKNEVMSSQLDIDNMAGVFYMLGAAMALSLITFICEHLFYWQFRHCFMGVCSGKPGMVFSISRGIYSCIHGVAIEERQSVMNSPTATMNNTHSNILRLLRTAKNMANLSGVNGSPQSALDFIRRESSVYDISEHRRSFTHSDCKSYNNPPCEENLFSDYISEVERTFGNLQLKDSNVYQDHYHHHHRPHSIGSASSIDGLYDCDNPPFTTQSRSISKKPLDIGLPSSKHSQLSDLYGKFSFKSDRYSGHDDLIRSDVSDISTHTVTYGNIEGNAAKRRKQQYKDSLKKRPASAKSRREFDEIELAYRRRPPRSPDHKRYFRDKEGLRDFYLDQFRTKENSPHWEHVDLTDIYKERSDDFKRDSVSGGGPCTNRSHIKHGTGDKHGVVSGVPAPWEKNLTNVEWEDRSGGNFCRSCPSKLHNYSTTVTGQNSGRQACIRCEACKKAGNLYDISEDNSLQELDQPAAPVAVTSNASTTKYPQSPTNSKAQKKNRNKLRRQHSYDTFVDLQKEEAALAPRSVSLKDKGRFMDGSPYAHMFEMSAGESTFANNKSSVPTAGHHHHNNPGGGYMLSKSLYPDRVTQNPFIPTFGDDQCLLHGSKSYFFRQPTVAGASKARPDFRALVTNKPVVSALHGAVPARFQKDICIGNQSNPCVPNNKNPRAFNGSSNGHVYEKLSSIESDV
row,inhibition at 10 µM [%],SMILES
1,92,"CCc1ccc2ncn(C)c2c1CNC(=O)c1csc(Cl)c1 [Example 147, 5-chloro-N-((6-ethyl-1-methyl-1H-benzimidazol-7-yl)methyl)thiophene-3-carboxamide]"
2,91,"CCc1ccc2ncn(C)c2c1CNC(=O)c1ccc(OC(F)F)cc1 [Example 148, 4-(difluoromethoxy)-N-((6-ethyl-1-methyl-1H-benzimidazol-7-yl)methyl)benzamide]"
3,93,"CCc1ccc2ncn(C)c2c1CNC(=O)c1ccc(OC(F)(F)F)nc1 [Example 149, N-((6-ethyl-1-methyl-1H-benzimidazol-7-yl)methyl)-6-(trifluoromethoxy)-nicotinamide]"
4,60,"CCn1cnc2ccc(OC)c(CNC(=O)c3cnc(OC)c(F)c3)c21 [Example 150, N-((1-ethyl-6-methoxy-1H-benzimidazol-7-yl)methyl)-5-fluoro-6-methoxynicotinamide]"
5,83,"CCn1cnc2ccc(OC)c(CNC(=O)c3cc(F)c(OC)c(F)c3)c21 [Example 151, N-((1-ethyl-6-methoxy-1H-benzimidazol-7-yl)methyl)-3,5-difluoro-4-methoxybenzamide]"
6,91,"Cc1ccc2ncn(C)c2c1CNC(=O)c1ccc(OC(F)(F)F)cc1 [Example 152, N-((1,6-dimethyl-1H-benzimidazol-7-yl)methyl)-4-(trifluoromethoxy)benzamide]"
7,90,"O=C(NCc1c(C2CC2)ccc2[nH]ncc12)c1cc(F)c(OC(F)F)c(F)c1 [Example 153, N-((5-cyclopropyl-1H-indazol-4-yl)methyl)-4-(difluoromethoxy)-3,5-difluorobenzamide]"
8,91,"O=C(NCc1c(C2CC2)ccc2[nH]ncc12)c1csc(C(F)F)c1 [Example 154, N-((5-cyclopropyl-1H-indazol-4-yl)methyl)-5-(difluoromethyl)-thiophene-3-carboxamide]"
9,92,"O=C(NCc1c(C2CC2)ccc2[nH]ncc12)c1ccc(C(F)F)s1 [Example 155, N-((5-cyclopropyl-1H-indazol-4-yl)methyl)-5-(difluoromethyl)-thiophene-2-carboxamide]"
10,76,"Cc1ccc2ncn(C)c2c1CNC(=O)c1csc(Cl)c1 [Example 156, 5-chloro-N-((1,6-dimethyl-1H-benzimidazol-7-yl)methyl)thiophene-3-carboxamide]"
11,85,"Cc1ccc2ncn(C)c2c1CNC(=O)c1ccc(C(F)F)cc1 [Example 157, 4-(difluoromethyl)-N-((1,6-dimethyl-1H-benzimidazol-7-yl)methyl)benzamide]"
12,89,"Cc1ccc2ncn(C)c2c1CNC(=O)c1cc(F)c(OC(F)F)c(F)c1 [Example 158, 4-(difluoromethoxy)-N-((1,6-dimethyl-1H-benzimidazol-7-yl)methyl)-3,5-difluorobenzamide]"
13,86,"Cc1ccc2ncn(C)c2c1CNC(=O)c1ccc(OC(F)F)nc1 [Example 159, 6-(difluoromethoxy)-N-((1,6-dimethyl-1H-benzimidazol-7-yl)methyl)nicotinamide]"
14,65,"COc1c(F)cc(C(=O)NCc2cccc3ncn(C)c23)cc1F [Example 160, 3,5-difluoro-4-methoxy-N-((1-methyl-1H-benzimidazol-7-yl)methyl)benzamide]"
15,92,"COc1ccc2ncn(C)c2c1CNC(=O)c1cc(F)c(OC(F)F)c(F)c1 [Example 161, 4-(difluoromethoxy)-3,5-difluoro-N-((6-methoxy-1-methyl-1H-benzimidazol-7-yl)methyl)benzamide]"
16,92,"COc1ccc2ncn(C)c2c1CNC(=O)c1ccc(C(F)(F)F)s1 [Example 162, N-((6-methoxy-1-methyl-1H-benzimidazol-7-yl)methyl)-5-(trifluoromethyl)-thiophene-2-carboxamide hydrochloride]"
